Assays:
[1] = tested on: IL10−/− knockout mouse colitis model; assay: Example 2: efficacy in mouse IL10−/− knockout colitis model; format: in vivo; conditions: 21 days
Method: The following study was conducted to evaluate the efficacy of an α4β7 integrin small molecule inhibitor relative to no treatment and to an IL-12/IL-23 inhibitor (anti-p40 antibody a murine surrogate of ustekinumab). […] Endpoint analysis included measurement of colon lamina propria lymphocytes, and histology scoring of the colon tissue.
Mice were treated for three (3) weeks with Formula (III) mixed with food chow (0.125%), and 4 mg/kg anti-p40 dosed intraperitoneally every four (4) days […].
Female IL-10 deficient C57CL/6 mice (aged 12 weeks at study inception) were used in this study. All animal experiments were conducted according to Swiss animal well fare law and approved by the local animal welfare authority of Zurich County (Tierversuchskommission Zürich, Zurich, Switzerland, License No. ZH256-2014).
Mice were administered either standard chow diet (Harlan Teklad Global Diets 2014, TD2014) or standard chow diet plus 0.125% of in chow. Formula (III) schedule was ad libitum while the Anti-p40 antibody was administered via intraperitoneal injection on day 1 and then every four days for three weeks.
The compound was added and mixed into the chow powder at 0.125% concentration, anti-p40 antibody was diluted in phosphate buffered saline (2 mg/mL) (anti-p40 antibody, a murine surrogate of ustekinumab) then dosed at 4 mg/kg every four days by intraperitoneal injection. […] The mice were then treated for three (3) weeks (21-days). On Day 21, mice were sacrificed, blood and tissue samples were collected for further analysis. While untreated IL-10−/− knockout mice progressively lost body weight and manifested colitis activity (measured by weight loss, stool frequency and stool consistency).
Mice were anesthetized with and mixture of ketamine (90-120 mg/kg-1 body weight, Vétoquinol, Bern, Switzerland) and Xylazine (8 mg/kg-1 body weight, Bayer, Lyssach, Switzerland) by intraperitoneal injection. Colonoscopies were performed as described in Becker C, Fantini M C, Neurath M F. High resolution colonoscopy in live mice. Nat. Protoc, 2006; 1:2900-4. The procedure was recorded with a Karl Storz Tele Pack Pal 20,043,020 (Karl Storz Endoskope, Tuttlingen, Germany). Scoring of the colonoscopy was done in accordance with the Murine Endoscopic Index of Colitis Severity (MEICS) scoring system as described in Becker C., Fantini M. C., Neurath M. F. High resolution colonoscopy in live mice. Nat. Protoc. 2006; 1:2900-2904. doi: 10.1038/nprot.2006.446. The following five (5) parameters were assessed: (1) transparency of the colon; (2) changes of the vascular pattern; (3) fibrin visible; (4) granularity of the mucosal surface; and (5) stool consistency.
Tissue Extraction: Mouse colons were extracted and fixed in 4% formalin, embedded in paraffin and then cut into 5-μm sections. The colon sections where then deparaffinized and stained with hematoxylin and eosin.
Mouse colons were extracted and opened up in a longitudinal orientation, placed in a 15 mL falcon tube, rinsed with PBS (Gibco, Thermo Fisher Scientific, Carlsbad, CA, USA). The colon was then cut into 2 mm^2 sized samples and washed with 2% FBS HBSS (Thermo Fisher Scientific). The supernatant was discarded, resuspended in HBSS supplemented with 2 mM EDTA (Thermo Fisher Scientific) and then incubated at 37° C. on a shaker (300 rpm) for 15 minutes. Upon completion of the incubation the tubes were vigorously shaken, the supernatant was carefully discarded, and the sample was washed with HBSS. Next, the samples were resuspended in a digestion buffer consisting of Dispase (0.6 mg/mL, Gibco) supplemented Collagenase IV (0.4 mg/mL; Clostridium Histolyticum, Sigma-Aldrich). The solution was incubated for 20 minutes on a 37° C. shaker (300 rpm). Upon completion, the samples were homogenized by passing the solution through a 18+1.5-gauge needle. Samples where then stained with TH1, TH17, Neutrophils, and Treg antibodies followed by preforming Flow cytometry analysis of the mice immune cells of the colon tissue. […]

[2] = First-in-human Part B: plasma PK after once-daily dosing of Formula (III) for 14 days; format: in vivo
Text: Part B (MAD Cohorts 6-10) consisted of up to 5 randomized, blinded (Sponsor-unblinded), placebo-controlled, MAD cohorts. Within each cohort 12 unique subjects were randomized 3:1 to receive blinded Formula (III) (N=9) or PTM Formula (III) (N=3). All subjects within each cohort received Formula (III) at the same dosing frequency.
Subjects enrolled in Part B received either blinded Formula (III) or PTM Formula (III) twice daily or once daily for 14 days. All subjects within each cohort received study drug at the same dosing frequency.
All study drugs in Part B (except Cohort 10 which will be administered under fasting conditions) were administered in the morning and evening following a standard meal (twice daily dosing), or only in the morning (daily dosing) following a standard meal except for Cohort 10.
Concentrations of Formula (III) and the metabolite, in plasma samples were determined using fully validated high-performance liquid chromatography-tandem mass spectrometry (LC-MS/MS) bioanalytical methods. All samples were analyzed in the timeframe supported by frozen stability storage data. The assays for Formula (III), and the metabolite were performed using methods validated by QPS, LLC (Newark, DE, USA).

SMILES: CCOC(=O)[C@H](Cc1ccc(-n2c(=O)c3ccncc3n(C)c2=O)c2ncccc12)NC(=O)c1c(C)cc(N2CCOC[C@@H]2C(F)(F)F)cc1F (atropisomer, axis not shown) [Formula (III)]
- disease activity (weight loss, stool frequency, stool consistency) ([1]; 0.125% in chow ad libitum): reduced disease activity
- body weight loss ([1]; 0.125% in chow ad libitum, vs untreated IL-10−/− mice): ameliorated body weight loss
- TH1 cells in colon tissue (flow cytometry) ([1]; 0.125% in chow): significantly reduced
- TH17 cells in colon tissue (flow cytometry) ([1]; 0.125% in chow): significantly reduced
- frequency of the Treg in colon tissue (flow cytometry) ([1]; 0.125% in chow): without affecting
- neutrophils in colon tissue (flow cytometry) ([1]; 0.125% in chow): significantly reduced
- histopathology score ([1]; 0.125% in chow, compared to the non-treatment group): reduced histopathology score
- colonoscopy score (MEICS) ([1]; 0.125% in chow, over the non-treatment group): significantly improved
- proinflammatory cytokines detected in the blood [1]: reduced proinflammatory cytokines
- intestine inflammation ([1]; single agent): significantly ameliorates
- metabolite multiple-dose exposure, 200-mg tablet fasting versus 500-mg nonfasting capsule [2]: slightly lower
